The record followed here is patent US11986485B1, “Compositions and methods for treating epilepsy” (POVIVA CORP, priority 2023, dated 2024).

“Also recorded” adds a separate entry of the source.

This data set can be described thus: Hepatic markers (ALT, AST, ALP, GGT, total bilirubin) during 5-week administration. The class given is in vivo, humans. The protocol: The study protocol was registered at the ClinicalTrials.gov (accessed on 7 Apr. 2022) (NCT05346562). […] Following a two-week washout, participants then repeated testing for another five weeks under different conditions. Participants visited the laboratory on 6 occasions in total (3 in each study arm), each time following an overnight fast. The complete course of the study was performed at the Department for Integrative Physiology, University of Split School of Medicine, Split, Croatia. The study design, implementation, and reporting followed the CONSORT guidelines, including the 25-item checklist and a flow diagram. The study was conducted according to the guidelines of the Declaration of Helsinki and was approved by the Ethics Committee of University of Split School of Medicine on 15 Dec. 2021 (Class: 003-08/21-03/0003; Reg. No.: 2181-198-03-04-21-0091). Prior to enrollment in the study, every participant was informed about the procedures, course, and purpose of the research and each of them individually signed an informed written consent.
Each patient visited the laboratory 6 times in total. During each visit, a sample of venous blood was taken from forearm following an overnight fast and sample of urine was obtained. All blood and urine samples were analyzed in the same certified institutional biochemical laboratory, using the standard operating procedures.
Hepatic (ALT, AST, ALP, GGT, and total bilirubin) markers were also measured.
Moreover, these changes we<1 standard deviation and therefore viewed as not clinically meaningful. As noted earlier, >3SD over normative values were classified as an AE.

Setting [1] is: 5 weeks administration, versus placebo.
The mark [2] stands for this setting: 5 weeks administration, versus placebo, listed as CBD.

With `C=C(C)[C@@H]1CCC(C)=C[C@H]1c1c(O)cc(CCCCC)cc1O` [Cannabidiol, 2-[(1R,6R)-6-Isopropenyl-3-methylcyclohex-2-en-1-yl]-5-pentylbenzene-1,3-diol], under setting [1], the “plasma alanine transaminase (ALT)” value was “remained effectively unchanged over time”, the “plasma alkaline phosphatase (ALP)” value is reported as “remained effectively unchanged over time” and the plasma total bilirubin result is “remained effectively unchanged over time”. Further, under setting [2], the “plasma aspartate transaminase (AST)” value was “higher in the placebo condition; also recorded: remained effectively unchanged over time” and the “plasma gamma-glutamyl transferase (GGT)” value is recorded as “slightly higher; also recorded: remained effectively unchanged over time”. Further, where the note is “viewed as not clinically meaningful”, the “size of GGT and AST changes” value is given as less than 1 standard deviation.
